Experimental findings from ChEMBL document CHEMBL1146320, “Investigating biological activity spectrum for novel quinoline analogues” (Bioorg Med Chem, 2007) are described below.

Activity calls are given as the source filed them. No cut-off for these calls is given here.

Usually IC50 stands for the concentration needed to halve the response being measured.

The test system of one data set is Chlorella vulgaris. The data set can be described thus: Inhibition of Chlorella vulgaris Beij assessed as reduction of chlorophyll content. In kind it is functional, organism-based.
Data set [1] can be described thus: Lipophilicity, log K of the compound. In kind it is physicochemical. The settings on record: octanol/water.
Data set [2] is described as follows: (§1) Inhibition of photosynthesis in spinach chloroplast. In kind it is functional, Spinacia oleracea.
In the next data set the test system is SK-N-MC. The data set can be described thus: Antiproliferative activity against human SK-N-MC cells by MTT assay. In kind it is functional, cell-based. (In general: Tetrazolium assays rely on reduction of a dye to a coloured formazan, in cell work by metabolically active cells.)
For a further data set, the system named is Spinacia oleracea. The data set is described as §1. In kind it is functional.

`Oc1ccc(/N=C/c2ccc3cccc(O)c3n2)cc1`: the IC50 with Chlorella vulgaris was determined as 17 µM. The “log K” value in data set [1] was found to be 1.0911.

In the case of `Cc1ccc2c(C(=O)O)cccc2n1`, the IC50 is 146 µM in data set [2] and over 6.25 µM in the data set on SK-N-MC. For the same compound, in data set [1], the “log K” value was 0.3629.

As to `O=C(O)c1ccc2nc(/C=C/c3ccccc3Cl)ccc2c1`, the IC50 with Chlorella vulgaris is 115 µM; in data set [2], 215 µM; with SK-N-MC, over 6.25 µM. Further, the “log K” value in data set [1] was determined as 1.4787.

With `Cc1nc2ccccc2c(=O)[nH]1`, the outcome in the data set on Chlorella vulgaris and in the data set on Spinacia oleracea was inactive. Further, in the data set on SK-N-MC, the IC50 is over 6.25 µM. Besides, the “log K” value in data set [1] is reported as 0.1515.

`NC(=S)N/N=C/c1ncccc1N` [TRIAPINE]: the IC50 in the data set on SK-N-MC was determined as 0.31 µM.

Turning to `O=C(O)c1ccc(C(=O)O)c2nc(/C=C/c3cccc(Br)c3)ccc12`, the “log K” value in data set [1] came out at 1.2171.

Consider `Oc1cccc(/N=C/c2ccc3cccc(O)c3n2)c1`, for which the IC50 in the data set with Chlorella vulgaris amounted to 168 µM. Besides, in data set [1], the “log K” value was 0.886.

Consider `CN(C)C(=O)Nc1ccc(Cl)c(Cl)c1` [DCMU], for which 1.9 µM corresponded to half-maximal inhibition in data set [2] (IC50).

In the case of `O=C(O)c1cccc2nc(/C=C/c3ccc(Cl)cc3)ccc12`, the IC50 was 96 µM with Chlorella vulgaris, 487 µM in data set [2] and over 6.25 µM in the data set on SK-N-MC. In addition, in data set [1], the “log K” value stood at 1.3976.

Turning to `O=C(O)c1ccc2ccc(/C=C/c3cccc(Cl)c3)nc2c1`, the IC50 in the data set on SK-N-MC was over 6.25 µM. Also, the “log K” value in data set [1] worked out at 1.2858.

In the case of `Nc1cc(N)c2cccnc2c1O`, the IC50 is 114 µM in the data set with Chlorella vulgaris, 185 µM in data set [2] and over 6.25 µM in the data set on SK-N-MC. Also, in data set [1], the “log K” value was 0.0522.

In data set [2], `Cc1ccc2c(N)cc(N)c(O)c2n1` yielded an IC50 of 142 µM. For the same compound, in data set [1], the “log K” value is 0.2707.

For the compound `Oc1cccc2ccc(/C=C/c3ccc(Br)cc3)nc12`, the IC50 in data set [2] is 135 µM; in the data set with SK-N-MC, over 6.25 µM. Moreover, the “log K” value in data set [1] amounted to 1.5802.

`Oc1ccccc1/N=C/c1ccc2cccc(O)c2n1`: the IC50 in the data set with Chlorella vulgaris was 11 µM; with SK-N-MC, over 6.25 µM. In addition, the “log K” value in data set [1] worked out at 0.4308.

With `O=[N+]([O-])c1cc([N+](=O)[O-])c2cccnc2c1O`, the IC50 in data set [2] is 82 µM; in the data set on SK-N-MC, over 6.25 µM. In addition, in data set [1], the “log K” value came to 0.7154.

With `Cc1ccc2c([N+](=O)[O-])cc([N+](=O)[O-])c(O)c2n1`, the IC50 in the data set on Chlorella vulgaris was 95 µM; in data set [2] it was 26 µM; in the data set with SK-N-MC, over 6.25 µM. Further, the “log K” value in data set [1] amounted to 0.7292.

Turning to `Oc1cccc2ccc(/C=C/c3cccc(Cl)c3)nc12`, the figures for the IC50 (in the data set on Chlorella vulgaris; in data set [2]; in the data set on SK-N-MC) were 33 µM, 146 µM and over 6.25 µM, respectively. For the same compound, the “log K” value in data set [1] came out at 1.5395.

`COc1ccccc1/C=C/c1ccc2cccc(C(=O)O)c2n1`: the “log K” value in data set [1] came out at 1.1922.

For `Oc1cccc2ccc(/C=C/c3ccc(Cl)cc3)nc12`, the half-inhibitory concentration (IC50) in data set [2] was found to be 448 µM; with SK-N-MC, 0.77 µM. The “log K” value in data set [1] was 1.5558.
